How the values were obtained:
[1] = Case report: asthma symptoms of an adult with history of asthma after a 5 day course of Tamiflu; settings: one patient
Source text: They had been using Advair® two inhalations a day or Symbicort® four puffs a day. Advair® is a combination formulation containing fluticasone propionate (a corticosteroid) and salmeterol xinafoate (a long-acting β2-adrenergic receptor agonist). Symbicort® contains two active ingredients which are delivered via a single inhaler: budesonide, a corticosteroid, and formoterol, a long-acting β2-agonist.
Singulair® contains montelukast, a leukotriene receptor antagonist (LTRA) used for the maintenance treatment of asthma and to relieve symptoms of seasonal allergies.

[2] = Case report: flu like symptoms of the same adult under Tamiflu; assay type: in vivo, human; settings: Tamiflu 75 mg by mouth twice a day

CC(C)(O)c1ccccc1CC[C@@H](SCC1(CC(=O)O)CC1)c1cccc(/C=C/c2ccc3ccc(Cl)cc3n2)c1 [Singulair, montelukast]
side effects in the patient ([1]; used for years): no side effects

CCOC(=O)C1=C[C@@H](OC(CC)CC)[C@H](NC(C)=O)[C@@H](N)C1 [Tamiflu, Oseltamivir phosphate]
time until fatigue resolved ([2]; one patient): ≤ 1.5 days | time until feeling better and myalgias relieved ([2]; one patient): ≤ 12 h | fever after start of treatment ([2]; dropped from 39 C.° within 1.5 days): 38 C.° | asthma symptoms ([1]; during/after Tamiflu 75 mg by mouth twice a day for 5 days): diminished | level of asthmatic relief compared with prednisone 60 mg per day, reported by the patient ([1]; five weeks after using Tamiflu): similar

— patent US20110229437A1, “Method of Treating Asthma with Antiviral Agents” (priority 2009, published 2011)
